Assay results from patent publication US20080206198A1, “Compounds and methods for pharmico-gene therapy of epithelial sodium channel associated disorders” (priority 2003, published 2008).
Peptide text beside a SMILES is read from it. * marks the point of attachment. Cbz = O=C(OCc1ccccc1)*

How the values were obtained:
HeLa cells = experiment: AAV2 FLAG-Luc transduction of HeLa cells (luciferase screen); type: cell-based, human; conditions: for concentration at which transduction was enhanced: HeLa cells
From the text: (§1) A. To screen for agents that enhance rAAV transduction, any number of cells can be used. A range of concentrations of the agent to be tested can be determined based on, for instance desirable profiles of the agent, desirable toxicity profiles of the agent and/or concentration of the agents employed in vivo. The usefulness of the cell type chosen for the screen can be confirmed by testing compounds, e.g., proteasome inhibitors such as LLnL and ZLL which are known to increase rAAV transduction. For example, a AAV2 FLAG-Luc vector was employed to transduce HeLa, ferret fibroblasts, IB3 and Huh (liver) cells in the presence or absence of the proteasome inhibitor MG132. MG132 was confirmed to enhance AAV transduction in all cell types tested: HeLa cell transduction was enhanced about 500-fold at 80 μM, and 200-fold at 40 μM, MG132; ferret fibroblast cell transduction was enhanced about 200-fold at 20 μM, and 17-fold at 4 μM, MG132; IB3-1 cell transduction was enhanced about 30 to 70-fold at 20 to 80 μM MG132; and Huh-7 cell transduction was enhanced about 15-fold at 20 to 80 μM MG132. There was no difference in rAAV transduction efficiency in HeLa cells when either DMSO or ETOH was used as a vehicle for MG132. B. HeLa cells were selected to screen for additional agents that enhance rAAV transduction, although any cell strain or line; or primary cells, may be employed. […] The range of concentrations of the agents to be tested were selected based on solubility profiles, toxicity profiles and/or concentrations previously employed in vivo.
HeLa cells were infected for 2 hours with an MOI of 100 rAAV in the presence of agents, e.g., ritonavir (Norvir) (1, 10 and 100 μM), cyclosporin A (2.5, 25 and 250 μg/ml), epoxomicin (1, 10 and 50 μM), alcacinomycin A (5, 50 or 500 μM), chymostatin (1, 10 and 100 μM), bestatin (1, 10 and 100 μM), doxorubicin (adriamycin) (0.1, 1 and 10 μM), camptothecin (camptosar) (1, 10 and 100 μM), eicosapentanoic acid (1, 10 and 100 μM), tannic acid (2, 20, 200 and 2000 μM), simvastatin, prodrug (2, 20 and 200 μM), cisplatin (0.2, 2 and 20 μg/mL), and chloroquine (4, 40 and 400 μM). Forty-eight hours after infection, cells were harvested for analysis. rAAV transduction was measured by removing the media from the cell cultures, adding 100 μL reporter lysis buffer (RLB) and freezing. The supernatant was thawed and transferred to microfuge tubes, freeze thawed an additional 2 times, clarified by centrifugation for 10 minutes and then analyzed for reporter gene expression on the lumometer. Protein was determined by Bradford analysis and results were expressed as relative light units per mg protein (RLU/mg).
Based on results with doxorubicin, a small number of FDA approved anthracyclines were tested for their relative in vitro and in vivo activities on AAV transduction. HeLa cells were infected with 100 ppc AAV2FLAG-Luc for 2 hours in the presence of different anthracyclines, e.g., doxorubicin, daunarubicin (Cerubidine), epirubicin (Ellence™), and idarubicin (Idamycin®), and cells harvested 48 hours later. The anthracyclines were pharmaceutical grade, and prepared according to the manufacturer's instructions. Prior to use, the agents were diluted in sterile water to an equal mass, e.g., 0.6 μg/mL, 3 μg/mL and 6 μg/mL. For example, 3 μg/mL idamycin increased luciferase expression by over 5000-fold while doxorubin increased luciferase expression by 58-fold. Generally, the potency was as follows: idarubicin>daunarubicin>epirubicin>doxorubicin.

ferret fibroblasts = experiment: rAAV transduction of ferret fibroblasts; type: cell-based; conditions: for concentration at which transduction was enhanced: ferret fibroblast cells
From the text: as §1
(§2) C. To determine whether combinations of agents that enhance rAAV transduction efficiency have synergistic or additive effects when used in combination, cells were contacted with the proteasome modulator, doxorubicin, and the proteasome inhibitor Z-LLL or LLnL. Different AAV vectors were tested, including splicing vectors and pseudotyped rAAV. Viral stocks utilized were as follows: Av2RSVluc, 5×10^8 particle/μl; Av2RSVlucCap5 (also referred to as Av2/5 CMVLuc), 2×10^9 particle/μl; Av2CMVluc, 1.3×10^9 particle/μl; and Av2CMVlucCap5, 1.1×109 particle/μl. Combinations of agents were compared to the agents used alone to determine the efficiency of transduction. LLnL was used at 40, 200 or 400 μM, Z-LLL at 4 μM and doxorubicin at 0.5 or 1 μM when employed alone. When a combination of LLnL and doxorubicin was used, LLnL was used at 4, 10, 20, 40, 200 or 400 μM and doxorubicin at 1 or 5 μM. The apical surface of polarized airway epithelia, HeLa cells or ferret fibroblast was contacted with the agents and rAAV (5×10^9 particles per well).

[1] = test system: polarized airway epithelia; experiment: Apical rAAV (AAV2 and AAV5 capsid) infection of polarized airway epithelia with agent combinations; type: cell-based, human; conditions: for concentration at which transduction was enhanced: polarized airway epithelial cells
Procedure: as §2

A549 cells = experiment: rAAV transduction of A549 cells; type: cell-based, human; conditions: for induction of rAAV transduction: 24 hours post-infection
Procedure: as §2
(§3) LLnL and Z-LLL are two tripeptidyl aldehydes shown to inhibit calpains, cathepsins, cysteine proteases as well as the chymotrypsin-like protease activity of proteasomes (Wagner et al., 2002; Donkor, 2000; Sasaki et al., 1990). […] Both classes of proteasome inhibitors bind tightly to the proteasome complex. Dose response curves for these two proteasome-modulating agents were evaluated on IB3, A549, Hela, and primary fibroblasts. The responses were consistent for a number of cell lines and for three different promoters driving luciferase expression. For one set, CMV-driven luciferase constructs with an AAV2-based genome were employed that were packaged into AV2 or AV5 capsids. Cells were infected at various doses of AV2Luc and AV2/5Luc (MOIs 100 to 1000 particles/cell). At the time of infection, cells were treated with various concentrations of LLnL or Doxorubicin and gene expression was assayed at 24 hours post-infection. The effect of proteasome inhibitors on nuclear uptake of virus was evaluated using a previously-described protocol for fractionating viral DNA in the cytoplasm and nucleus (Xiao et al., 2002). Viral DNA content in the cytoplasmic and nuclear fractions was then evaluated by slot blot hybridization against a Luciferase DNA probe.

IB3 cells [2] = experiment: AV2Luc and AV2/5Luc transduction of IB3 cells; type: cell-based, human; conditions: 24 hours post-infection
Procedure: as §3

IB3 cells [3] = experiment: Nuclear versus cytoplasmic viral DNA fractionation in rAAV2-infected IB3 cells; type: cell-based, human
Procedure: as §3

[4] = test system: primary fetal fibroblasts; experiment: rAAV transduction of primary fetal fibroblasts; type: cell-based; conditions: data not shown
Procedure: Hela, A549, IB3, and primary fetal fibroblasts were evaluated for AV2Luc and AV2/5Luc transduction in the presence of LLnL, Dox, or LLnL+Dox at various concentrations. The data shown is from Hela and A549 cells at the most optimal dose combination that induces rAV2Luc transduction to a greater extent than each compound alone.

## CC(C)C[C@@H](C=O)NC(=O)[C@H](CC(C)C)NC(=O)[C@H](CC(C)C)NC(=O)OCc1ccccc1 [Z-LLL, N-carbobenzoxyl-L-leucinyl-L-leucinyl-L-leucinal] (Cbz-Leu-Leu-Leu-aldehyde)
HeLa cells; 40 μM
  enhancement of HeLa cell transduction: about 200 fold
HeLa cells; 80 μM
  enhancement of HeLa cell transduction: about 500 fold
Ferret fibroblasts; 4 μM
  enhancement of ferret fibroblast cell transduction: ~17 fold
Ferret fibroblasts; 20 μM
  enhancement of ferret fibroblast cell transduction: about 200 fold

## COc1cccc2c1C(=O)c1c(O)c3c(c(O)c1C2=O)C[C@@](O)(C(=O)CO)C[C@@H]3O[C@H]1C[C@H](N)[C@H](O)[C@H](C)O1 [doxorubicin]
HeLa cells
  result in cell line screening: tested positive
  concentration at which transduction was enhanced: 1 µM
HeLa cells; 3 μg/mL, 100 ppc AAV2FLAG-Luc, harvest 48 hours
  increase in luciferase expression: 58 fold
HeLa cells; 0.6, 3 and 6 μg/mL
  order of potency among anthracyclines: idarubicin>daunarubicin>epirubicin>doxorubicin
HeLa cells; dose ranges tested
  dose dependence of transduction: dose-dependent increase in transduction
Ferret fibroblasts
  concentration at which transduction was enhanced: 1 µM
Ferret fibroblasts; ferret fibroblasts infected with lacZ splicing vectors
  enhancement of transduction: about 100 fold
[1]; in the presence of doxorubicin
  induction of AAV2 and AAV5 apical infection of polarized cells: 200 to 600 fold
[1]
  concentration at which transduction was enhanced: 5 µM
A549 cells
  concentration at which transduction was enhanced: 5 µM
  induction of rAAV transduction: 200 fold
IB3 cells [2]
  induction of rAAV transduction: 200 fold
IB3 cells [3]
  fraction of viral DNA in the nuclear compartment: significantly increased the fraction of viral DNA in the nuclear compartment
[4]
  induction of transduction: most significantly enhances transduction

## N-acetyl-L-leucinyl-L-leucinal-L-norleucinal [LLnL]
HeLa cells
  concentration at which transduction was enhanced: 40 µM
Ferret fibroblasts
  concentration at which transduction was enhanced: 40 µM
[1]
  concentration at which transduction was enhanced: 40 µM
A549 cells
  concentration at which transduction was enhanced: 200 to 400 µM
  induction of rAAV transduction: 10-fold lower levels of induction
IB3 cells [2]
  induction of rAAV transduction: > 200 fold
IB3 cells [3]
  fraction of viral DNA in the nuclear compartment: significantly increased the fraction of viral DNA in the nuclear compartment
[4]
  induction of transduction: 10 fold
